# Measurements reported in the SangsterLogP compilation.
row,Compound,logP
1,CCN1CCCCC1,1.88
2,OC1CCCCCC1,1.83
3,CCC(C)(C)CC,5.19
4,CCCCC(=O)CCCC,2.88
5,CCCCCCCCCCc1ccccc1,7.4
6,C#CCCCCCC,3.92
7,CCC(C)(C)c1ccc(O)cc1,3.83
8,CCCCF,2
9,CC(C)CBr,2.53
10,CC(C)CCl,2.39
11,CCOC(=O)C(C)C,1.55
12,CCCCCCCCC(=O)OC,3.87
13,CCCOC(=O)CCC,2.15
14,CCCCOC(=O)CCCC,3.36
15,CCCCCCCCCCCCCC,8
16,ClCCCCCl,2.24
17,CCCCCCCl,3.66
18,CC1CCCO1 (centres undefined),1.25
19,CCCCCC(=O)OC,2.42
20,CC(C)Br,2.1
21,CCCCCCI,4.16
22,CCCC(C)(C)O,1.53

row,Compound,logP
1,CCCC(=O)OCC,1.71
2,CC(=O)OC(C)C,1.02
3,ClCC(Cl)(Cl)Cl,2.66
4,C#CCCCCCCC,4.51
5,CCCCCI,3.62
6,C#CCC,1.46
7,CCCCCCCCCCBr,6
8,CCC(=O)OC(C)C,1.57
9,C#CCCCCC,3.32
10,CCOC=O,0.27
11,CCCOC(=O)CC,1.71
12,OC1CCCCCCC1,2.39
13,CC(C)C(C)(C)O,1.48
14,C=CCCC,2.8
15,CCCCCCCCCl,4.73
16,CCCCC(=O)OCC,2.3
17,CCCI,2.54
18,C=CCC=CC,3.16
19,CCCCCCl,3.11
20,CCCCCCCCC,5.65
21,CCCCI,3.08
22,CCCC(=O)CCC,2.04
